Data published in patent US9617282B2, “Macrocyclic compounds as IRAK4 inhibitors for the treatment of inflammatory diseases” (BIOGEN MA INC., priority 2013, dated 2017).

Target: IRAK4 (Homo sapiens (Human), UniProt Q9NWZ3)
Experiment: IRAK-4 biochemical kinase assay, AlphaScreen format
Settings: 1 nM IRAK4, 1.6 μM peptide, 10 μM ATP, 3.5 h at RT
Procedure: The biochemical assay is in a AlphaScreen format. The kinase reaction is based on the IRAK-4 phosphorylation of a biotin labeled peptide. The phosphopeptide is incubated with anti-phosphothreonine antibody as well as streptavidin- and protein A-coated beads. Binding of the protein-A coated beads to the antibody and the streptavidin beads to the peptide, leads to an energy transfer from one bead to the other, ultimately producing a luminescent/fluorescent signal.

Chain of IRAK4 (Q9NWZ3 whole entry, species assumed): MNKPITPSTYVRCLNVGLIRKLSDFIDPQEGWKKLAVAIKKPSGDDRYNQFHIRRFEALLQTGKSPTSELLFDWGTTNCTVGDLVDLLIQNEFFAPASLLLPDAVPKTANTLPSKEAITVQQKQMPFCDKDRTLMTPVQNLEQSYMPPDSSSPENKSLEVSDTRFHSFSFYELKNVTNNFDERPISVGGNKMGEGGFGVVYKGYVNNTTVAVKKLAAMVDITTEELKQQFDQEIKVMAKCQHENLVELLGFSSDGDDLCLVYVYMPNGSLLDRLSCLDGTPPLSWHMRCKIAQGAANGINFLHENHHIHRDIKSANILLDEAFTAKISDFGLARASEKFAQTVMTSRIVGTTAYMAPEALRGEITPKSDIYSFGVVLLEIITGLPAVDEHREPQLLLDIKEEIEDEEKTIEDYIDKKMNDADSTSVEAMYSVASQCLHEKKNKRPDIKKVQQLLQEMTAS

| SMILES | IC50 (class symbols) [nM] | IC50 (given as numeric bound) [nM] |
| --- | --- | --- |
| Cn1cc2c(n1)C(=O)NCCOCCOc1cc(ccn1)-c1csc(n1)C(=O)N2 [Example 213] | < 10000 |  |
| Cn1cc2c(n1)C(=O)NCCOCCOc1cc(ccn1)-n1cc(cn1)C(=O)N2 [Example 202] | < 10000 |  |
| O=C1Nc2cn(C3CCOCC3)nc2C(=O)NCCOCCOc2cc(ccn2)-c2cccc1n2 [Example 204] | < 1000 |  |
| CC(C)(C)C(=O)N1CCCc2cc(ccn2)-c2nc(cs2)C(=O)Nc2cn(C3CCOCC3)nc2C(=O)NCC1 [Example 182] | < 1000 |  |
| CN1CCCOc2cnccc2-c2nc(c[nH]2)C1=O [Example 101] |  | > 10000 |
| Cn1cc2c(n1)C(=O)NCCOCCOc1cc(ccn1)C1=CC=C(S1)C(=O)N2 [Example 205] |  | > 10000 |
| CN(C)CCCN1CCCCCCOc2cc(ccn2)-c2nc(co2)C1=O [Compound 55] |  | > 10000 |
| O=C1Nc2cn(C3CCOCC3)nc2C(=O)NCCCCCc2cc(ccn2)-c2nc1c[nH]2 [Example 97] | < 10000 |  |
| CN(C)C(=O)N1CCCc2cc(ccn2)-c2nc(cs2)C(=O)Nc2cn(C3CCOCC3)nc2C(=O)NCC1 [Example 187] | < 1000 |  |
| O=C1Nc2ccccc2OCCCCCOc2cc(ccn2)-c2nc1co2 [Compound 3] | < 1000 |  |
| O=C1NCC2CCC(CC2)OCCNc2cc(ccn2)-c2nc1co2 [Example 85] | < 1000 |  |
| CCN1CCCCCCCCN(CC)c2cc(ccn2)-c2nc(cs2)C1=O [Example 65] | < 10000 |  |
| Cn1cc2c(n1)C(=O)NCCCCOc1cc(ccn1)-c1nc(c[nH]1)C(=O)N2 [Example 92] | < 10000 |  |
| CN1CCN(CCn2ncc3c2C(=O)NCCOCCOc2cc(ccn2)-c2nc(cs2)C(=O)N3)CC1 [Example 141] | < 10000 |  |
| CCN1CCCCCCCCNc2cc(ccn2)-c2nc(cs2)C1=O [Example 66] | < 1000 |  |
| O=C1NCCCCCCCCCn2cc(cn2)-c2nc1co2 [Compound 9] | < 1000 |  |
| O=C1Nc2ccccc2OCCCCCCc2cc(ccn2)-c2nc1co2 [Compound 5] | < 100 |  |
| O=C1Nc2cn(C3CCOCC3)nc2C(=O)NCCCOCCCc2cc(ccn2)-c2nc1cs2 [Example 216] | < 100 |  |

Further lines, results first:

| IC50 (class symbols) [nM] | IC50 (given as numeric bound) [nM] | SMILES |
| --- | --- | --- |
| < 100 |  | CN1CCOCCNC(=O)c2nn(C3CCOCC3)cc2NC(=O)c2csc(n2)-c2ccnc1c2 [Example 219] |
| < 100 |  | CC(C)(CO)C(=O)N1CCCc2cc(ccn2)-c2nc(cs2)C(=O)Nc2cn(C3CCOCC3)nc2C(=O)NCC1 [Example 185] |
| < 100 |  | O=C1Nc2ccccc2OC2CCC(CCc3cc(ccn3)-c3nc1co3)CC2 [Example 81] |
| < 100 |  | Cn1cc2c(n1)C(=O)NCCOCCOc1cc(ccn1)-c1nc(co1)C(=O)N2 [Compound 35] |
| < 100 |  | O=C1NCCCCCCCCNc2cc(ccn2)-c2nc1co2 [Example 68] |
| < 100 |  | O=C1Nc2cn(C3CCOCC3)nc2C(=O)NCCCCCOc2cc(ccn2)-c2nc1co2 [Compound 38] |
| < 100 |  | O=C1Nc2ccccc2OCCCCCCCn2cc(cn2)-c2nc1co2 [Compound 8] |
| < 100 |  | O=C1Nc2cn(C3CCOCC3)nc2C(=O)NCCOCCOc2cc(ccn2)-c2cccc1c2 [Example 210] |
| < 100 |  | O=C1c2coc(n2)-c2ccnc(c2)NCCCCCOCC2CCCN12 (stereo not shown) [Compound 59] |
| < 100 |  | CN1CCCCNC(=O)c2nn(C)cc2NC(=O)c2csc(n2)-c2ccnc1c2 [Example 223] |
| < 100 |  | O=C1Nc2ccccc2OCCCCCNc2cc(ccn2)-c2nc1cs2 [Compound 13] |
| < 100 |  | CCOC(=O)CCN1CCCc2cc(ccn2)-c2nc(cs2)C(=O)Nc2cn(C3CCOCC3)nc2C(=O)NCC1 [Example 180] |
| < 100 |  | Cn1cc2c(n1)C(=O)NCCOCCOc1cc(ccn1)-c1cccc(n1)C(=O)N2 [Example 203] |
| < 100 |  | O=C1CCc2cc(ccn2)-c2nc(cs2)C(=O)Nc2cn(C3CCOCC3)nc2C(=O)NCCN1 [Example 225] |
| < 100 |  | Cn1cc2c(n1)C(=O)NCCCCCNc1cc(ccn1)-c1nc(co1)C(=O)N2 [Compound 33] |
| < 100 |  | CN1CCN(C(=O)c2ccc3c(c2)NC(=O)c2csc(n2)-c2ccnc(c2)NCCCCCO3)CC1 [Compound 23] |
